Experimental findings from patent EP4796125A1, “TREATMENT OF PATIENT WITH NEGATIVE P53 GENE MUTATION, POSITIVE KRAS GENE MUTATION AND POSITIVE BRCA MUTATION” (Ascentawits Pharmaceuticals, Ltd., priority 2023, dated 2025) are described below.

Test [1] has as its system H460 cells. The experiment in a line: Cell cycle G2/M arrest, PI staining and flow cytometry. The format is cell-based. The following applies: 0.1 nM AST-3424, 5 µM Nutlin-3, 24 hours, combination: AST-3424 added first (Figure 9). Here is the method:
(§1) • 1) H460/HPAF-II cell suspensions were added to a 24-well plate, with a cell density of 100000 cells/well and 995 µL of medium per well. • 2) The cells were cultured overnight in a 37°C, 5% CO2 incubator. • 3) Compound Treatment
(§2) 24 hours after cell plating, according to the protocol, the experimental groups for each cell line were as follows: Monotherapy: 24 hours after cell plating, 5 µL of test compounds at different concentrations was added: 1% DMSO, 5 µM Nutlin-3, and 0.1 nM AST-3424. The plate was gently shaken to ensure even mixing, and then placed in a 37°C, 5% CO2 incubator.
(§3) • Cells were pretreated with AST-3424 for 2 hours, and then co-treatment with Nutlin-3 for 24 hours; • cells were pretreated with Nutlin-3 for 2 hours, and then co-treatment with AS -3424 for 24 hours; and • cells were co-treated with AST-3424 and Nutlin-3 for 24 hours. • 4) The cells were digested, centrifuged at 1000 g at 4°C, washed once with pre-cooled PBS, centrifuged at 1000 g at 4°C, and fixed with 1 mL of pre-cooled 70% ethanol at - 20°C overnight. • 5) The cells were centrifuged at 3000 g at 4°C, washed once with pre-cooled PBS (phosphate buffer), and centrifuged at 3000g at 4°C. PI staining solution was prepared. The cells were stained at 37°Cfor 30 minutes (protected from light), and stored in an ice bath (protected from light). The cells were detected using a flow cytometer on the same day, and the proportions of cells in different cell cycle phases was analyzed using FlowJo.
The remaining operations were similar to those of the above experiment, and the compound treatment was as follows: […]

For test [2], the system named is Total P53, MDM2, P21, AKR1C3 proteins in H460 cells. The experiment in a line: WB detection ± Nutlin-3 in H460 and H460 P53 KO cells. The note with it: wild-type H460 cells; 5 µM Nutlin-3, 24h; compared with the H460 wild-type DMSO group (Figures 33, 34). The format is cell-based.
Protocol: • 1) H460 and H460 P53 KO cell suspensions were added to 24-well plates, with a cell density of 100000 cells/well and 995 µL of medium per well. • 2) The cells were cultured overnight in a 37°C, 5% CO2 incubator. • 3) Compound Treatment
24 hours after cell plating, according to the protocol, the experimental groups for each cell line were as follows: H460 WT non-treatment group, H460 P53 KO # 1 non-treatment group, H460 P53 KO # 7 non-treatment group, H460 P53 KO # 8 non-treatment group, H460 P53 KO # 12 non-treatment group, H460 WT 0.1% DMSO treatment group, H460 WT 5 µM Nutlin-3 treatment group, H460 P53 KO # 1 5 µM Nutlin-3 treatment group, H460 P53 KO # 7 5 µM Nutlin-3 treatment group, H460 P53 KO # 8 5 µM Nutlin-3 treatment group, and H460 P53 KO # 12 5 µM Nutlin-3 treatment group.
Monotherapy: 24 hours after cell plating, 5 µL of test compounds at different concentrations was added. […]
• 1) The cell plates were taken out and the medium supernatant was discarded. […] The cells were scraped off with a cell scraper, lysed on ice for 30 min, and centrifuged at 14000 rpm at 4°C for 10 min. • 2) Protein quantification was performed using the BCA assay. […] After the incubation, the membranes were washed three times with TBST (10 min per wash).The ECL luminescence solutions A and B (SuperSignal West Femto Maximum Sensitivity) were mixed and added to the membranes blotting dry. […]
Test [3] relates to H460 cells. The experiment in a line: In vitro proliferation inhibition experiment (CTG, 72 hours), Example 20. The test is classed as cell-based. The procedure:
(§4) • 1) H460 and HPAF-II cell suspensions were added to a 96-well plate (100 µL per well), with cell densities of 2000 cells/well and 20000 cells/well, respectively. • 2) The cells were cultured overnight in a 37°C, 5% CO2 incubator. • 3) Compound Treatment
(§5) Combination therapy: 24 hours after cell plating, each well was supplemented with 99 µL of growth medium. Then, 0.5 µL of Nutlin-3 or RITA was added to each well. The plate was gently shaken to ensure even mixing, and then placed in an incubator for 2 hours. Then, 0.5 µL of test compounds at different concentrations was added. The plate was gently shaken to ensure even mixing, and then placed in a 37°C, 5% CO2 incubator.
(§6) Monotherapy: 24 hours after cell plating, each well was supplemented with 99.5 µL of growth medium. Then, 0.5 µL of test compounds at different concentrations was added. The plate was gently shaken to ensure even mixing, and then placed in a 37°C, 5% CO2 incubator. • 4) The cell plate was placed in the incubator for 72 hours. • 5) The cell plate to be tested was placed at room temperature and equilibrated for 30 minutes, and 100 µL of medium was discarded from each well. • 6) 25 µL of CTG reagent was added to each well, placed on a fast shaker to shake for 2 minutes, and placed at room temperature for 30 minutes (protected from light). • 7) The chemiluminescence signal value was read using a multifunctional microplate reader with a reading time of 1000 ms, and the corresponding inhibition rate data were calculated.

Test [4] relates to Ser15-p53, Ser20-p53, Total p53, MDM2, and p21 proteins in H460 cells. The experiment in a line: WB detection of p53 protein pathway (Ser15-p53, Ser20-p53, Total p53, MDM2, p21). The format is cell-based. The following applies: second experiment: 0.1, 0.3, 1 nM AST-3424 ± 5 µM Nutlin-3, 24 hours, AST-3424 dose-dependent (Figure 16).
Protocol: • 1) H460 cell suspension was added to a 24-well plate, with a cell density of 80000 cells/well and 995 µL of medium per well. • 2) The cells were cultured overnight in a 37°C, 5% CO2 incubator. • 3) Compound Treatment
24 hours after cell plating, according to the protocol, the experimental groups for each cell line were as follows: • Monotherapy: 24 hours after cell plating, 5 µL of test compounds at different concentrations was added: 0.5% DMSO, 0.1 nM AST-3424, and 5 µM Nutlin-3. The plate was gently shaken to ensure even mixing, and then placed in a 37°C, 5% CO2 incubator. • Combination therapy: 24 hours after cell plating, 5 µL of test compounds at different concentrations was added. After pre-treatment with 5 µM Nutlin-3 for 2 hours, 0.1 nM AST-3424 was added. The plate was gently shaken to ensure even mixing, and then placed in a 37°C, 5% CO2 incubator.
4) Cell protein lysates were collected for WB detection.
• Adding 0.1 nM AST-3424 for pre-treatment for 2 hours, and then adding 5 µM Nutlin-3 for co-treatment for 22 hours; • Adding 0.3 nM AST-3424 for pre-treatment for 2 hours, and then adding 5 µM Nutlin-3 for co-treatment for 22 hours; • Adding 1 nM AST-3424 for pre-treatment for 2 hours, and then adding 5 µM Nutlin-3 for co-treatment for 22 hours. […]
In test [5] the test system is HPAF-II cells. The experiment in a line: In vitro proliferation inhibition experiment (CTG, 72 hours), Example 20. The format is cell-based, human. The note with it: Table 14, HPAF-II. The procedure:
as §4, §5, §6

The subject of test [6] is HPAF-II cells. The experiment in a line: Cell cycle G2/M arrest, PI staining and flow cytometry. The test is classed as cell-based, human. The note with it: HPAF-II cells with p53 pathogenic mutations; 0.1 nM AST-3424, 5 µM Nutlin-3 (Figure 9). The procedure: as §1, §2
as §3, with “The cells were stained at 37°Cfor 30 minutes (protected from light), and stored in an ice bath (protected from light).” left out
For orientation: Flow cytometry measures light scatter and fluorescence of single cells or particles in a stream.

Take `COc1ccc(C2=N[C@@H](c3ccc(Cl)cc3)[C@@H](c3ccc(Cl)cc3)N2C(=O)N2CCNC(=O)C2)c(OC(C)C)c1` [Nutlin-3]: the “cell cycle (G0/G1, S, G2/M phases)” value in test [1] is given as “does not significantly alter the cell cycle”; in test [6] it was “has no effect”. The “expressions of MDM2, P53, P21, and AKR1C3 proteins” value in test [2] is listed as “all upregulated”. Further, the “Inhibition rate result / %” value in test [3] (Table 12, H460, group 1: AST 0.5 nM, Nutlin-3 0.25 µM, AST + Nutlin-3 0.5+0.25) is recorded as 11.8%; in test [3] (Table 12, H460, group 2: AST 0.5 nM, Nutlin-3 0.5 µM, AST + Nutlin-3 0.5+0.5), 17.27%; in test [3] (Table 12, H460, group 3: AST 0.5 nM, Nutlin-3 1 µM, AST + Nutlin-3 0.5+1), 18.3%; in test [3] (Table 12, H460, group 4: AST 1.5 nM, Nutlin-3 0.25 µM, AST + Nutlin-3 1.5+0.25) it was 11.8%; in test [3] (Table 12, H460, group 5: AST 1.5 nM, Nutlin-3 0.5 µM, AST + Nutlin-3 1.5+0.5) it was 17.27%; in test [3] (Table 12, H460, group 6: AST 1.5 nM, Nutlin-3 1 µM, AST + Nutlin-3 1.5+1), 18.3%. Besides, the “Inhibition rate result / %” value in test [5] (group 1: AST 20 nM, Nutlin-3 7.5 µM, AST + Nutlin-3 20+7.5) is given as 8.54%; in test [5] (group 2: AST 20 nM, Nutlin-3 10 µM, AST + Nutlin-3 20+10), 52.46%; in test [5] (group 3: AST 20 nM, Nutlin-3 15 µM, AST + Nutlin-3 20+15), 73.93%; in test [5] (group 4: AST 60 nM, Nutlin-3 7.5 µM, AST + Nutlin-3 60+7.5) it was 8.54%; in test [5] (group 5: AST 60 nM, Nutlin-3 10 µM, AST + Nutlin-3 60+10) it was 52.46%; in test [5] (group 6: AST 60 nM, Nutlin-3 15 µM, AST + Nutlin-3 60+15), 73.93%. In test [4], the “phosphorylation of p53 (Ser15-p53 and Ser20-p53), protein expression of total-p53, expression of MDM2 and p21” value is on record as “upregulates”.
